These results are taken from ChEMBL document CHEMBL1126817, “Synthesis, Biological Properties, and Structure-Activity Relationships of Quinoxaline Angiotensin II Receptor Antagonists” (Bioorg Med Chem Lett, 1993).

Test [1] has as its target T1, Angiotensin II receptor (Rattus norvegicus, UniProt P29089+P25095+P35351).
T1 sequence (P29089 whole entry): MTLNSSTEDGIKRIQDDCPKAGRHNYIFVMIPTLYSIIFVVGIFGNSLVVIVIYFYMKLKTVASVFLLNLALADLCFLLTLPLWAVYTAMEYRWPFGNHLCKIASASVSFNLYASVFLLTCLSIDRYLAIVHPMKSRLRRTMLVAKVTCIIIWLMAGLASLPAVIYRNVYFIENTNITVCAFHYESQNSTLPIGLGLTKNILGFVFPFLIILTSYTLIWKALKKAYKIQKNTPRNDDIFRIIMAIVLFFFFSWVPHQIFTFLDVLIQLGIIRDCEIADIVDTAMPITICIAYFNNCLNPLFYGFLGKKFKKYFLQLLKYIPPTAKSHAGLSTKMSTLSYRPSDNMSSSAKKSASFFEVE
T1 sequence (P25095 whole entry): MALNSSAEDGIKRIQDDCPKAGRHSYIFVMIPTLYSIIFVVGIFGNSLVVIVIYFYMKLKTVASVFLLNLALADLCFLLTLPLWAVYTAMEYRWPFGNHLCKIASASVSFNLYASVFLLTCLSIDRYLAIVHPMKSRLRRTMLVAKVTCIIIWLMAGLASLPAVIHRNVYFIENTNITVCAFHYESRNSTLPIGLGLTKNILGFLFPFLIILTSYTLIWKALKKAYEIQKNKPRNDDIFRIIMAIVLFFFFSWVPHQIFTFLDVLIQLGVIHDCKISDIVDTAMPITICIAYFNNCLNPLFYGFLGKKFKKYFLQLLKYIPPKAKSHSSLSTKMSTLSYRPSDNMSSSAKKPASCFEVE
T1 sequence (P35351 whole entry): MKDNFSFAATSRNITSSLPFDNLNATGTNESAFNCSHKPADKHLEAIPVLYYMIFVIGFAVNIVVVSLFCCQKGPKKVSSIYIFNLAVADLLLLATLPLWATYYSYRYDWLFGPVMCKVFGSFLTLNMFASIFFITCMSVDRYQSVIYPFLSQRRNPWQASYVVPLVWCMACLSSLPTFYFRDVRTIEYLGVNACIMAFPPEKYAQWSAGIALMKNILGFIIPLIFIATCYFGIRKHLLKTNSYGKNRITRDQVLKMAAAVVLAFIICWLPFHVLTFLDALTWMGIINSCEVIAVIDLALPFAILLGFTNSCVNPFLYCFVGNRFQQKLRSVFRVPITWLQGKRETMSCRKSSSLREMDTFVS
Description: Tested for binding affinity by measuring displacement of [125I]-Sar1 Ile8 angiotensin II from rat adrenal cortical membranes. The format is cell membranes, Membrane. A general note: In a radioligand displacement assay an active substance lowers the binding of a labelled ligand.

For test [2], the species on record is Rattus norvegicus. Nature of the test: Tested for depression of contractions elicited by angiotensin II receptor in isolated rat aorta. The format is functional.
Test [3] has as its system Rattus norvegicus. Description: Compound was tested for inhibition of angiotensin II induced pressor response after intravenous administration in rats. The test is classed as functional.
Test [4] relates to Rattus norvegicus. Description: Tested for percent inhibition of compound against angiotensin II induced pressor response after 3 umol/kg intravenous administration at 70 min in rats. The format is functional.
The subject of test [5] is Rattus norvegicus. Nature of the test: Tested for percent inhibition of compound against angiotensin II induced pressor response after 1 umol/kg intravenous administration in rats; inactive. The test is classed as functional.

For the compound `CCCCc1c(Cc2ccc(-c3ccccc3-c3nn[nH]n3)cc2)nc2ccccc2[n+]1[O-]`, the Ki in test [1] is 29 nM. The Kb in test [2] was found to be 52 nM.
For `CCCCc1c(Cc2ccc(-c3ccccc3-c3nn[nH]n3)cc2)[n+]([O-])c2ccccc2[n+]1[O-]`, in test [1], the Ki is reported as 2.6 nM. The compound further gave an ED50 in test [3] of 1.8 µmol/kg. The compound further returned an inhibition in vivo at 3 µmol/kg in test [4] of 0%. This compound also displayed a Kb in test [2] of 2.1 nM.
Turning to `CCCCc1nc2ccccc2nc1Cc1ccc(-c2ccccc2-c2nn[nH]n2)cc1`, in test [1], the Ki is 7 nM. This compound registered a Kb in test [2] of 32 nM.
In the same order, the values of `CCCCc1nc2ccccc2[n+]([O-])c1Cc1ccc(-c2ccccc2-c2nn[nH]n2)cc1` are 2.1 nM and 5.3 nM.
On to `CCCCc1nc2cccc(C(=O)O)c2nc1Cc1ccc(-c2ccccc2-c2nn[nH]n2)cc1`, for which the Ki in test [1] turned out to be 6.9 nM. For the same compound, the inhibition in vivo at 1 µmol/kg in test [5] was determined as 7%. The Kb in test [2] stood at 0.49 nM.

Usually Ki stands for the equilibrium dissociation constant of an inhibitor or competing ligand from its target. For orientation: ED50 means the dose at which the effect has come halfway, by size or by number of responders. The low end stands for an effect at a small dose, the high end for a need for a large dose. As usually defined, the inhibition in vivo is how much of the control response was suppressed. Read a low inhibition in vivo as little suppression.
